Assays:
[1] = target: T1, αvβ3 (vitronectin receptor) (Homo sapiens, UniProt P05106+P06756); assay: Solid-phase [3H]-SK&F-107260 binding to αvβ3 (inhibition of vitronectin binding); settings: [3H]-SK&F-107260 as ligand, 5.0 nM; human placenta or platelet αvβ3
T1 construct: Human placenta or human platelet αvβ3; from tissue; host or cells: human placenta or human platelets
Experimental: Solid-Phase [^3 H]-SK&F-107260 Binding to αvβ3 : Human placenta or human platelet αvβ3 (0.1-0.3 mg/mL) in buffer T (containing 2 mM CaCl2 and 1% octylglucoside) was diluted with buffer T containing 1 mM CaCl2, 1 mM MnCl2, 1 mM MgCl2 (buffer A) and 0.05% NaN3, and then immediately added to 96-well ELISA plates (Corning, New York, N.Y.) at 0.1 mL per well. 0.1-0.2 ,g of αvβ3 was added per well. The plates were incubated overnight at 4° C. At the time of the experiment, the wells were washed once with buffer A and were incubated with 0.1 mL of 3.5% bovine serum albumin in the same buffer for 1 hr at room temperature. Following incubation the wells were aspirated completely and washed twice with 0.2 mL buffer A. […]
The plates were incubated for 1 hr at room temperature. […] The receptors were solubilized with 0.1 mL of 1% SDS and the bound [^3 H]-SK&F-107260 was determined by liquid scintillation counting with the addition of 3 mL Ready Safe in a Beckman LS Liquid Scintillation Counter, with 40% efficiency. Nonspecific binding of [^3 H]-SK&F-107260 was determined in the presence of 2 LM SK&F-107260 and was consistently less than 1% of total radioligand input. […] The Ki (dissociation constant of the antagonist) was calculated according to the equation: Ki =IC50 /(1+L/Kd), where L and Kd were the concentration and the dissociation constant of [^3 H]-SK&F-107260, respectively.

[2] = system: osteoclasts; settings: Sato et al. 1990 (echistatin); Bertolini et al. (cyclic peptide); cited from earlier work
[3] = system: bone resorption; settings: rat; Fisher et al., Endocrinology 1993; cited from earlier work
[4] = system: bone resorption; settings: Sato et al., J. Cell Biol. 1990; cited from earlier work

T1 sequence (P06756 31-889 limits assumed): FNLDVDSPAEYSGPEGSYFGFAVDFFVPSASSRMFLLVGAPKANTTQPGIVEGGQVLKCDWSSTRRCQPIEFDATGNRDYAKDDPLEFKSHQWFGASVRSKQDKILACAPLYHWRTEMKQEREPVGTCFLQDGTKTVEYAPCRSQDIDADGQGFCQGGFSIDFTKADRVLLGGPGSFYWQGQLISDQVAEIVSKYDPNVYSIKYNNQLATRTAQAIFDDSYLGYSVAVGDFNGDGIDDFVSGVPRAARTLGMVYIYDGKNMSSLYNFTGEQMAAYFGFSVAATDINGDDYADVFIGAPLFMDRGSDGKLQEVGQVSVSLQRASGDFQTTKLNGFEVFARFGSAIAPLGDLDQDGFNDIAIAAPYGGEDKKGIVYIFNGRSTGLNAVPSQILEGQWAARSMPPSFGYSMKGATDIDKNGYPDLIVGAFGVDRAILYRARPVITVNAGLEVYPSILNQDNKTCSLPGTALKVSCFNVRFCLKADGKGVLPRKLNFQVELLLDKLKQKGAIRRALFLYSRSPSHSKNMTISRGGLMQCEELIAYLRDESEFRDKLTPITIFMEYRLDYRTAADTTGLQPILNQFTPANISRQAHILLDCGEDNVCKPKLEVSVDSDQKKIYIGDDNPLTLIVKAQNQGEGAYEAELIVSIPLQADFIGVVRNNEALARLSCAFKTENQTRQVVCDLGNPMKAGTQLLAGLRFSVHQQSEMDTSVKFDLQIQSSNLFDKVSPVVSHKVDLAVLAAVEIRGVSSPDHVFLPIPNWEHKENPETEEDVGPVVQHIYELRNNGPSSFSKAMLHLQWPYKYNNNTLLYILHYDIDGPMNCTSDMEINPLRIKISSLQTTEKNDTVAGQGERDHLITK
T1 sequence (P06756 891-1048 partner limits assumed): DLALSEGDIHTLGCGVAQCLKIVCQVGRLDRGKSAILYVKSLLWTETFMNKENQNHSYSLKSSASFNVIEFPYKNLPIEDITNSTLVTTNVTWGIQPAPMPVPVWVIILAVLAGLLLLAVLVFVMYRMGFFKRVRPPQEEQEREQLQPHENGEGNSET
T1 sequence (P05106 27-788): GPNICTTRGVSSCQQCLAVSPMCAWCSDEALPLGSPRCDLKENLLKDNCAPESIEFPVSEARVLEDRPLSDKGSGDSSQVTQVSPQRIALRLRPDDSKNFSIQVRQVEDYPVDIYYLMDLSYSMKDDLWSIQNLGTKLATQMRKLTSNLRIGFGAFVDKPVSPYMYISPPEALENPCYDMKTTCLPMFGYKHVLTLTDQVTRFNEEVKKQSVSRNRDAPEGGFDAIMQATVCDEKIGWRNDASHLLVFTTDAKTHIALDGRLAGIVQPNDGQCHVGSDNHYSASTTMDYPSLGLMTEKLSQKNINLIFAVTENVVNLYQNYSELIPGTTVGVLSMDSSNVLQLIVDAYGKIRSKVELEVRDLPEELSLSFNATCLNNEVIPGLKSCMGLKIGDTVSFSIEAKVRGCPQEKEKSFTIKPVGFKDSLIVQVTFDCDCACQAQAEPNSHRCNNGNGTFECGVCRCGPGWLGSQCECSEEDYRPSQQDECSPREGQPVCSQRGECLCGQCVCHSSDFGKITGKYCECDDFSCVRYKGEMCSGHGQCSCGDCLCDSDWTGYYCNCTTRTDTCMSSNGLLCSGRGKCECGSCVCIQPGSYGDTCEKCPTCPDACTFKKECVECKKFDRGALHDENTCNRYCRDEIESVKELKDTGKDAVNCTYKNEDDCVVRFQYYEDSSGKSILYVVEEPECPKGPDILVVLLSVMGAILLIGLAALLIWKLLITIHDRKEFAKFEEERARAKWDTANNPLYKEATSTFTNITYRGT

## O=C(O)CC1Cc2ccc(OCCCNc3ccccn3)cc2CCC1=O (racemic) [(±)-2-(2-Pyridylamino)propoxy-6,7,8,9-tetrahydro-7-oxo-5H-benzocycloheptenyl-6-acetic acid]
[1]
  Ki: ~23 nM

## cylco-S,S-N^α -acetyl-cysteinyl-N^α -methyl-argininyl-glycyl-aspartyl-penicillamine
[2]
  inhibition of attachment of osteoclasts to bone: inhibits osteoclast attachment to bone

## echistatin
[3]
  inhibition of bone resorption in vivo: inhibits bone resorption in vivo in the rat
[4]
  inhibition of bone resorption in tissue culture: potent inhibitor of bone resorption in tissue culture
[2]
  inhibition of attachment of osteoclasts to bone: inhibits attachment of osteoclasts to bone

Source: patent US6239138A, “Vitronectin receptor antagonist” (SmithKline Beecham Corporation, priority 1999, dated 2001)
